In assay [1] the test system is BRAF-mutant vs BRAF wild-type cell lines. In words: PRISM, 100 barcoded cell lines in 4 pools of 25, BRAF genotype comparison. Conditions: AUC of viability, 100 cell lines, PRISM (and Nuclei, ATP).
In assay [2] the test system is 25 barcoded lung adenocarcinoma cell lines in mixture. Put plainly: PRISM compound assay, mixture of 25 barcoded lung adenocarcinoma cell lines. Format: cell-based, human. Conditions: 0–10 μg/ml, 5 days, viability relative to DMSO.
The test system of another assay is NCI-H2228. The description is as above. Format: cell-based, human. Conditions: 0–10 μM, 5 days, in mixture.
The test system of a further assay is NCI-H3122 cell line. Described as above. Format: cell-based, human. Conditions: 0–10 μM, 5 days, in mixture.
The subject of assay [3] is 4 EGFR-mutant cell lines in the pool. The description is as above. The following applies: 0–10 μM, 5 days, viability relative to DMSO. Format: cell-based, human.

Results on 5 compounds are retold here after article PMC5508574 (Nature biotechnology, 2016).

In the case of `CNC(=O)c1cc(Oc2ccc(NC(=O)Nc3ccc(Cl)c(C(F)(F)F)c3)cc2)ccn1` [sorafenib], the “Differential sensitivity of BRAF-mutant vs BRAF wild-type cell lines” value in assay [1] was “No significant differential sensitivity”. Same read-out and setting: in the case of `CCCS(=O)(=O)Nc1ccc(F)c(C(=O)c2c[nH]c3ncc(Cl)cc23)c1F` [PLX4720] it was “hypersensitivity”.

As to `COc1ccc(C[C@H](N)C(=O)N[C@H]2[C@@H](O)[C@H](n3cnc4c(N(C)C)ncnc43)O[C@@H]2CO)cc1` [puromycin], the “Pattern of cell killing across the pool” value in assay [2] is “uniform killing across the pool”. Take `COc1cc(N2CCC(N3CCN(C)CC3)CC2)ccc1Nc1ncc(Cl)c(Nc2ccccc2S(=O)(=O)C(C)C)n1` [NVP-TAE-684]: the “Sensitivity of NCI-H2228 (different EML4-ALK translocation)” value in the assay with NCI-H2228 is on record as “intrinsic resistance”. Besides, the “Sensitivity of NCI-H3122 (EML4-ALK translocation)” value in the assay with NCI-H3122 cell line was “sensitive”.

`C#Cc1cccc(Nc2ncnc3cc(OCCOC)c(OCCOC)cc23)c1` [erlotinib]: the “Killing of EGFR-mutant cell lines in the pool” value in assay [3] was “dose-dependent killing”.
